This note sets out measurements from ChEMBL document CHEMBL1137236, “Synthesis and neuroprotective effects of serofendic acid analogues” (2006).

The structures appear in SMILES notation.

The first assay has as its system Cortical neurone. In words: Protective effect against L-glutamate-induced neurotoxicity in rat primary cortical neurons at 1 uM by trypan blue exclusion method. Format: functional.
As to `C[C@]12N[C@H](Cc3ccccc31)c1ccccc12.O=C(O)/C=C\C(=O)O` [DIZOCILPINE MALEATE], the Activity is 80.7%.

A further assay concerns Cortical neurone. In words: Protective effect against L-glutamate-induced neurotoxicity in rat primary cortical neurons at 10 uM by trypan blue exclusion method. It is filed as functional.
The molecule `C[S+]([O-])C[C@@H]1C(=O)[C@]23CC[C@H]1C[C@H]2[C@]1(C)CCC[C@@](C)(C(=O)O)[C@H]1CC3` (stereo partly specified) yielded an Activity of 41.5%.
The same measure, in the same setting: in the case of `C[S+]([O-])C[C@H]1[C@H]2CC[C@@]3(CC[C@H]4[C@@](C)(CCC[C@@]4(C)C(=O)O)[C@@H]3C2)[C@@H]1O` (stereo partly specified) [SEROFENDIC ACID] it was 45.3%; in that of `C[S+]([O-])C[C@@H]1[C@H]2CC[C@@]3(CC[C@H]4[C@@](C)(CCC[C@@]4(C)C(=O)O)[C@@H]3C2)[C@H]1O` (stereo partly specified), 33.7%; in that of `C[S+]([O-])C[C@H]1[C@H]2CC[C@@]3(CC[C@@H]4[C@](C)(CO)CCC[C@@]4(C)[C@@H]3C2)[C@@H]1O` (stereo partly specified), 7.79%.
`CSC[C@H]1[C@H]2CC[C@@]3(CC[C@H]4[C@@](C)(CCC[C@@]4(C)C(=O)O)[C@@H]3C2)[C@@H]1O`: the Activity came to 39.8%.
The same measure, in the same setting: in the case of `C[S+]([O-])CC1C[C@]23CC[C@H]1C[C@H]2[C@]1(C)CCC[C@@](C)(C(=O)O)[C@H]1CC3` (stereo partly specified) it was 18.1%; in that of `C[S+]([O-])C[C@H]1[C@H]2CC[C@@]3(CC[C@@H]4C(C)(C)CCC[C@@]4(C)[C@@H]3C2)[C@@H]1O` (stereo partly specified), 13.1%; in that of `C[S+]([O-])CC1=C[C@]23CC[C@H]1C[C@H]2[C@]1(C)CCC[C@@](C)(C(=O)O)[C@H]1CC3` (stereo partly specified), 15.6%.
The same measure, in the same setting: the same measure for `COC(=O)[C@]1(C)CCC[C@@]2(C)[C@@H]3C[C@@H]4CC[C@@]3(CC[C@@H]21)[C@H](O)[C@H]4C[S+](C)[O-]` (stereo partly specified): 20.5%; for `C[C@@]12CCC[C@@](C)(C(=O)O)[C@H]1CC[C@@]13CC[C@@H](C[C@@H]21)[C@H](CS(C)(=O)=O)[C@H]3O`: 20%.
